Experimental findings from US7816347B2, “Pharmaceutical compositions comprising NEP-inhibitors, inhibitors of the endogenous endothelin producing system and HMG CoA reductase inhibitors” (Solvay Pharmaceuticals GmbH, priority 2004, dated 2010) are described below.

Read-outs that look alike come from different tables or passages of the source. Marks after values point to notes of the source that are not given here.

Test [1] deals with spontaneously hypertensive rat. The note with it: in food.
Description: Male spontaneously hypertensive rats (=SHR; insulin resistant strain from Charles River; aged 6 months) were equipped with telemetry transmitters for continuous monitoring of blood pressure and heart rate (TA11PA-C40, DSI, USA). Telemetry transmitters for continuous monitoring of blood pressure, heart rate and locomotor activity (TA11PA-C40, Data Sciences, USA) were implanted intraabdominally under inhalative halothane anesthesia. A midline abdominal incision was made, and the abdominal aorta was visualized by removal of retroperitoneal fat and connective tissue. A ligature was placed caudal of the renal arteries, the aorta was punctured with a 22G needle, and the catheter was advanced into the aorta. The entry point was sealed with tissue adhesive (Vetbond™, 3M, USA), the ligature was removed, and the abdominal incision was closed. Measurements of aortic pressure were taken every 5 minutes (=min) for 4 seconds (=s) each at a sampling rate of 500 Hz, and were corrected for the corresponding ambient pressure (ambient pressure monitor, C11PR, Data Sciences, USA).
In a further study performed with a new batch of SHR equipped with telemetry-transmitters as described above, the animals were divided into two groups receiving the HMG CoA reductase inhibitor atorvastatin or a combination of atorvastatin+daglutril. Compounds were mixed into the food, and the daily drug intake was measured by weighing the unconsumed food four times weekly. Intended daily doses were 40 mg/kg/day of atorvastatin and in addition, in the combination group, 100 mg/kg/day of daglutril.
Concentrations of atorvastatin and daglutril in the food were adjusted once per week.
For the statistical analysis, the effects of atorvastatin and atorvastatin+daglutril were calculated by subtracting the baseline value (pre) measured on the last day prior to the start of treatment (day 3) from that measured on day 25 (i.e. on the penultimate day of the treatment period) for each animal. The statistical comparison was done by using a two-sided unpaired Student's t-test.
Test [2] concerns spontaneously hypertensive rat. The test can be described thus: Telemetric blood pressure and heart rate in SHR; daglutril, simvastatin or simvastatin+daglutril via drinking water. Format: in vivo. As to conditions: for DBP, change from baseline / HR, change from baseline / SBP, change from baseline: 24 h mean, day 23 minus baseline (day 3), intended 40 mg/kg/day simvastatin, 100 mg/kg/day daglutril, n = 4-5. How it is done: In a first experiment, after 3 days of monitoring under baseline (untreated) conditions, animals received daglutril via the drinking water. The intended daily dose was 100 mg/kg/day of daglutril. The concentration in drinking water was adjusted once per week, resulting in an average drug intake of 98 mg/kg/day.
Concentrations of simvastatin and daglutril in the drinking water were adjusted once per week, in order to ensure the intended daily intake of 40 and 100 mg/kg, respectively. The average daily water intake amounted to 33 and 36 ml/kg in the simvastatin and simvastatin+daglutril group, respectively, resulting in the uptake of 36 mg/kg/day of simvastatin in the simvastatin group, and 37 mg/kg/day of simvastatin and 93 mg/kg/day of daglutril in the combination group.
These 24 h means were exported to Excel®, and group mean values of systolic (SBP), diastolic blood pressure (DBP), heart rate (HR), and locomotor activity (ACT) were calculated daily. For the statistical analysis, the effects of simvastatin and simvastatin+daglutril were calculated by subtracting the baseline value (pre) measured on the last day prior to compound application (day 3) from that value measured on day 23 (i.e. on the penultimate day of the treatment period) for each animal. The statistical comparison was done by using univariate ANOVA at an error level of P<0.05.

Test [3] has as its system human subjects with congestive heart failure. Kind of test: Single dose study of oral daglutril during 12-hour right heart catheterization; subgroup analysis by concomitant HMG CoA reductase inhibitor. Format: in vivo. The note with it: CHF patients, single oral dose of daglutril (200, 400 or 800 mg groups), with or without concomitant HMG CoA reductase inhibitor; value (SE). On the procedure: A randomized, placebo-controlled, parallel group, multi-center, single dose study of oral daglutril (vide supra) during 12-hour right heart catheterization in human subjects with congestive heart failure (=CHF) was performed. Each subject received one dose of daglutril or placebo. The study consisted of three visits (or study days when in-subjects were included). Ambulatory subjects were in hospital for two nights and one day. […]
The primary efficacy parameter was the maximum decrease from baseline over 6 hours for SVR and was compared between treatment groups using analysis of covariance, with the baseline value as covariate and center and NYHA classification as factors. […] In addition, the existence of a dose-response relationship for daglutril was evaluated by investigating linear, quadratic and cubic contrasts. The secondary efficacy parameter was the maximum change from baseline over 6 hours for PCWP and was analyzed in the same way as the primary variable. The maximum decrease from baseline over 12 hours, the change from for each individual time point and the adjusted area under the curve (=AUC) over 6 and 12 hours were analyzed for SVR and PCWP, using similar statistical methodology as for the main parameter of interest. […]

[4] abbreviates: 24 h mean, day 25 minus baseline (day 3), intended 40 mg/kg/day atorvastatin, 100 mg/kg/day daglutril, n = 6.

With `CC(C)c1c(C(=O)Nc2ccccc2)c(-c2ccccc2)c(-c2ccc(F)cc2)n1CC[C@@H](O)C[C@@H](O)CC(=O)O` [Atorvastatin, atorvastatin], in test [1] (setting [4]), the “DBP, change from baseline” value is recorded as 3.2 mmHg; the “HR, change from baseline” value was -25.3 min⁻¹; the “SBP, change from baseline” value is listed as 3.5 mmHg. For the same compound, in test [1] (SHR), the “Effect on blood pressure (both SBP and DBP) (in words)” value is reported as “increase in blood pressure”.
As to `CCC(C)(C)C(=O)O[C@H]1C[C@@H](C)C=C2C=C[C@H](C)[C@H](CC[C@@H]3C[C@@H](O)CC(=O)O3)[C@H]21` [Simvastatin, simvastatin], in test [2], the “DBP, change from baseline” value is 4.7 mmHg; the “HR, change from baseline” value is -4.2 min⁻¹; the “SBP, change from baseline” value came out at 4.2 mmHg.
Turning to `CCOC(=O)C(CCc1ccccc1)CC1(C(=O)NC2CCc3ccccc3N(CC(=O)O)C2=O)CCCC1` (stereo not drawn) [daglutril, 2-[1-(1-carboxymethyl-2-oxo-2,3,4,5-tetrahydro-1H-benzo[b]azepin-3-ylcarbamoyl)-cyclopentylmethyl]-4-phenyl-butyric acid ethyl ester], in test [2], the “DBP, change from baseline” value is on record as 2.0* mmHg; the “HR, change from baseline” value is -6.0 min⁻¹; the “SBP, change from baseline” value was −0.3* mmHg. For the same compound, in test [2] (SHR), the “Effect on blood pressure (in words)” value was “no effect on blood pressure”. In addition, the “Placebo corrected mean change of MPAP (average 0.5-6 hrs)” value in test [3] is recorded as −2.26 (1.05) mm Hg.
